Test results from patent publication US10927343B2, “Therapeutic apoptotic cell preparations, method for producing same and uses thereof” (ENLIVEX THERAPEUTICS LTD, priority 2012, dated 2021).

System: NLRP3 inflammasome-induced IL-1β release from murine peritoneal macrophages (pMΦ)
Assay: IL-1β release from primary resident peritoneal macrophages (ELISA)
Assay type: cell-based, mice
Settings: LPS + 3% DSS, z-YVAD-fmk 10 μM, K+ 130 mM, bafilomycin A1 10 nM, NAC 20 mM
Description: Primary resident peritoneal macrophages (pMΦ) of WT or Nlrp3−/− mice were generated as described elsewhere (Bauer et al. 2010). Briefly, mice were sacrificed under isoflurane anesthesia by cervical dislocation. Peritoneal lavage was then performed by exposing the parietal peritoneum and injecting intraperitoneally with a transpipette 10 ml of 2% FBS in PBS. The peritoneal lavage fluid was centrifuged and re-suspended at the desired concentration. The adherent pMΦ (F 4/80 positive cells) subset consists about 20% of the peritoneal lavage as observed by flow cytometer analysis. Cells were then plated into culture dishes overnight. Cells were washed, and adherent cells were used for cytokine assays. Where indicated, experiments were performed after four weeks of co-housing WT and NLRP3-deficient mice to neutralize the microbiota effect.
pMΦ were seeded into 96-well plates at a density of 2×10^5 cells per well. After LPS priming for 1 h, cells were stimulated with different activators for 24 h. Cell culture supernatant was used for ELISA (Biolegend, San Diego Calif., USA), which was performed according to the manufacturer's protocol.
In order to examine the effect of the apoptotic cell composition on inflammasome-induced IL-1β release, isolated macrophages were exposed to lipopolysaccharide (LPS) and DSS with or without earlier interaction with apoptotic cells for two hours.
Given the need for TLR triggering through NF-κB signaling, and the fact that apoptotic cells can inhibit NF-κB, and therefore inhibit […] secretion in the absence of inflammasome inhibition, a set of experiments was initiated to elucidate whether IL-1β secretion is inhibited both at NF-κB and NLRP3 levels by apoptotic cells. Resident peritoneal macrophages (pMΦ) were either incubated with apoptotic cells, washed, and primed with LPS following stimulation with various inflammasome inducers, or were first primed with LPS, allowing accumulation of de novo […] transcription and then treated with apoptotic cells and inducers.

Compound | DSS-mediated IL-1β release
CC(=O)N[C@@H](CS)C(=O)O [N-acetyl-L-cysteine] | significantly inhibited
CO/C1=C\C(C)=C\[C@@H](C)[C@@H](O)[C@@H](C)C/C(C)=C/C=C/[C@H](OC)[C@@H]([C@@H](C)[C@@H](O)[C@H](C)[C@@]2(O)C[C@@H](O)[C@H](C)[C@@H](C(C)C)O2)OC1=O [bafilomycin, bafilomycin A1] | inhibited
[Cl-].[K+] [KCl] | inhibited
z-YVAD-fmk | almost complete inhibition
